Assay results as given in US20240279710A1, “FLUORESCENT PROBES” (TOHOKU TECHNO ARCH CO., LTD., priority 2021, published 2024).

Experiments:
[1] = target: T1, calpain-1 from human erythrocytes (Homo sapiens, UniProt P07384); experiment: Fluorescence assay with calpain-1; assay type: biochemical; settings: 10 μM probe, 17.4 U/mL calpain-1, 5 mM CaCl2, 37° C., excitation 475 nm, fluorescence 500-550 nm; for increase in fluorescence intensity 10 minutes after the addition of calpain-1: FIG. 5(b)
T1 construct: calpain-1 from human erythrocytes; purchased Merck Millipore 208713; host or cells: human erythrocytes (natural source)
T1 sequence (P07384 1-714): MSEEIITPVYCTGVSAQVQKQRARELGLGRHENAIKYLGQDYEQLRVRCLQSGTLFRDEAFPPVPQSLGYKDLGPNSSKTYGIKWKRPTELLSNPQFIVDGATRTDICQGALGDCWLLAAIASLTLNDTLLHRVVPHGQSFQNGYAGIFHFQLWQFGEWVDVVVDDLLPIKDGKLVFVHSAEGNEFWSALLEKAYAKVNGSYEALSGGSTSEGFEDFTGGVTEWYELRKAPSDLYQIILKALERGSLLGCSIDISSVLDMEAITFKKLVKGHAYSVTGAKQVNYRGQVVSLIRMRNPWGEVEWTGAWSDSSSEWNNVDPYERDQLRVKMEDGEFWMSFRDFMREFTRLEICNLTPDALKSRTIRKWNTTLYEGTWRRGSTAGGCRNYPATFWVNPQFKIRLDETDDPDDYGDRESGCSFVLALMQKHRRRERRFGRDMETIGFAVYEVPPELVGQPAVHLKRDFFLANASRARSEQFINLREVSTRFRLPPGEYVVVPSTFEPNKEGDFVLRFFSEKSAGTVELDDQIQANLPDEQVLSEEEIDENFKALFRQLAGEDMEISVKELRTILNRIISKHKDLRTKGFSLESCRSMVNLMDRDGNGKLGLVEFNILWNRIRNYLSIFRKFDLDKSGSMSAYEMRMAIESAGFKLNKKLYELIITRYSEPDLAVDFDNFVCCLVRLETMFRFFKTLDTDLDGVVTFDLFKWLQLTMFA
T1 sequence (P04632 1-268 partner): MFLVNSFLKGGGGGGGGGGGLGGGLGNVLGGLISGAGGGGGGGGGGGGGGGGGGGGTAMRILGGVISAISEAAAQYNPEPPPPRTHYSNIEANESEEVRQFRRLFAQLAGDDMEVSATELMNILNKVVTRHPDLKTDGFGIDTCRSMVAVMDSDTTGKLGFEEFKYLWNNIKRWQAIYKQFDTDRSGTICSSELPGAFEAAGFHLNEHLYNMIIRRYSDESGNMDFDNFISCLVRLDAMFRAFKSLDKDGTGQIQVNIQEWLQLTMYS
Experimental: The fluorescence assays of Compound 19 and Compound 16 with time were performed. Specifically, 17.4 U/mL of calpain-1 and 5 mM CaCl2 were added to a 50 mM TRIS buffer (pH: 7.4, 2 mM EGTA, 2 mM DTE) containing 10 μM of each of the synthesized fluorescent probes to perform an enzyme reaction at 37° C. Each of the compounds to which calpain-1 and CaCl2 were not added was similarly subjected as a negative control to the measurement.
The fluorescence assays of Compounds 16 to 36 were similarly performed. 50 Units per milliliter (Compounds 16 and 19 to 25) or 17.4 U/mL (Compounds 16 to 18 and 26 to 36) of calpain-1 and 5 mM CaCl2 were added to a 50 mM TRIS buffer (pH: 7.4, 2 mM EGTA, 2 mM DTE) containing 10 μM of each of the synthesized fluorescent probes to perform an enzyme reaction at 37° C.
Next, similar fluorescence assays of Compounds 37, 42, 45, 48, 51, 53, 55, 57, and 59 with calpain-1 were performed. Specifically, 17.4 U/mL of calpain-1 and 5 mM CaCl2 were added to a 50 mM TRIS buffer (pH: 7.4, 2 mM EGTA, 2 mM DTE) containing 10 μM of each of the synthesized fluorescent probes to perform an enzyme reaction at 37° C. Each of the compounds to which calpain-1 was not added was used as a control.
To evaluate an influence of a R^12-L-O— group on the reactivity of each of compounds having the same amino acids with calpain-1, the fluorescence assays of Compounds 37 to 66 with calpain-1 were performed in accordance with the above-mentioned method. Specifically, 17.4 U/mL of calpain-1 and 5 mM CaCl2 were added to a 50 mM TRIS buffer (pH: 7.4, 2 mM EGTA, 2 mM DTE) containing 10 μM of each of the synthesized fluorescent probes to perform an enzyme reaction at 37° C., followed by the measurement of an increase in fluorescence intensity of each of the compounds 10 minutes after the addition of calpain-1.

calpain = experiment: Rabbit NMDA injury model, ocular fundus imaging; assay type: in vivo; settings: for staining of nerve cells with HMRG in ocular fundus: 30, 45 and 60 minutes after probe into the eye (Compound 19 18.3 μM 19 μL; Compound 16 20 μM 19 μl or 38 μl)
Experimental: Black Dutch rabbits were each subjected to general anesthesia with a mixed liquid of ketamine and xylazine. N-Methyl-D-aspartate (NMDA) (12 mM, 50 μL) or PBS was administered into an eye of the rabbit. 9 Hours after that, the rabbit was anesthetized with a mixed liquid of ketamine and xylazine again, and Compound 19 (18.3 μM, 19 μL), Compound 16 (20 μM, 19 μl), or Compound 16 (20 μM, 38 μl) was administered into the eye. Images of an ocular fundus were taken with Mirante (a confocal scanning diode laser ophthalmoscope manufactured by Nidek Co., Ltd.) before the administration of each of the compounds and after the lapse of a predetermined time from the administration.

SH-SY5Y cells = experiment: Live cell imaging of calpain activity in SH-SY5Y cells; assay type: cell-based; settings: 5 μM probe, 10 minutes incubation, confocal microscope; FIG. 12
Experimental: Whether or not the improvement in enzymatic reactivity between the compound of the present invention and a calpain confirmed by the above-mentioned experiment remained the same even in a cell was verified. Calpain activity imaging in SH-SY5Y cells was performed on each of Compounds 16 and 19. Specifically, the SH-SY5Y cells (American Type Culture Collection, VA, USA) were cultured in a mixed medium of Dulbecco's modified eagle medium and Ham's F-12 medium (DMEM/F-12; Thermo Fisher Scientific, Inc.) (containing 10% fetal bovine serum (FBS; Thermo Fisher Scientific, Inc., MA, USA) and 100 U/mL penicillin-100 μg/mL streptomycin (PS; Thermo Fisher Scientific, Inc.)) under the conditions of 37° C. and 5% CO2-95% air. 6×10^4 to 8×10^4 Cells/well of the cells were seeded in a multiwell plate (μ-Plate 96 Well; ibidi, Grafelfing, Germany) coated with poly-D-lysine (Thermo Fisher Scientific, Inc.) and laminin (BD Biosciences, CA, USA), and were preincubated in a culture solution. Immediately after the removal of the culture solution in the wells, 200 μL of an assay solution (a culture solution containing a 5 μM probe) was added thereto, and the cells were incubated under the conditions of 37° C. and 5% CO2-95% air. 10 Minutes after that, a bright field image and a fluorescence image were taken with a confocal microscope (LSM 710, Carl Zeiss AG, Oberkochen, Germany).
Calpain activity imaging in SH-SY5Y cells was performed on each of Compounds 20 to 23, Compound 38, and Compound 56 in the same manner as in Example 9. In the case of each of Compounds 20 to 23 and Compound 38, a bright field image and a fluorescence image were taken after 30 minutes of incubation of the cells, and in the case of Compound 56, such images were taken after 20 minutes of incubation thereof.

SMILES | increase in fluorescence intensity 10 minutes after the addition of calpain-1 [1] | number of HMRG-positive cells in PBS rabbits compared to NMDA rabbits (calpain; Compound 19 (19 μL) and Compound 16 (38 μl), FIG. 23) | staining of nerve cells with HMRG in ocular fundus (calpain; rabbits administered NMDA (12 mM, 50 μL)) | staining of nerve cells with HMRG in ocular fundus (calpain; rabbits administered PBS) | change in fluorescence intensity with time by calpain-1 ([1]; FIG. 4) | calpain activity imaging in SH-SY5Y cells (SH-SY5Y cells)
CCC(=O)N[C@@H](CC(C)C)C(=O)N[C@@H](CCSC)C(=O)Nc1ccc2c(c1)Oc1cc(N)ccc1C21OCc2ccccc21 (stereo partly shown) [Compound 17] | reduced in fluorescence intensity as compared to Compound 16 |  |  |  |  | 
CSCC[C@H](NC(=O)[C@H](CC(C)C)NC(C)=O)C(=O)Nc1ccc2c(c1)Oc1cc(N)ccc1C21OCc2ccccc21 (stereo partly shown) [Compound 16, reference compound] |  | significantly reduced | many nerve cells were clearly stained with HMRG | substantially no staining of the nerve cells with HMRG | functioned as a fluorescent probe for calpain-1 | enabled the observation of calpain activity in the SH-SY5Y cells
CCCC(=O)N[C@@H](CC(C)C)C(=O)N[C@@H](CCSC)C(=O)Nc1ccc2c(c1)Oc1cc(N)ccc1C21OCc2ccccc21 (stereo partly shown) [Compound 18] | reduced in fluorescence intensity as compared to Compound 16 |  |  |  |  | 
